Measurements as given in US10933061B2 (Shepherd Therapeutics, Inc., priority 2017, dated 2021).
Values joined by “and” are separate entries in the source; they are usually repeats but may differ in a detail not shown here. Equal values may be shown once. Read-outs that look alike come from different tables or passages of the source.

Tests used:
Test in all cases: Chou-Talalay combination assay, Cell Titer Glo
[1] = tested on: NCI-H295R adrenocortical carcinoma cells; assay type: cell-based; conditions: combination with pyrvinium pamoate, 72 hour incubation
Method: (§1) Following a 72 hour incubation, cell viability was determined using Cell Titer Glo.

[2] = tested on: SW13 adrenocortical carcinoma cells; assay type: cell-based; conditions: combination with pyrvinium pamoate, 72 hour incubation
Method: as §1

[3] = tested on: carcinoid tumor cell line STC-1; assay type: cell-based; conditions: combination with pyrvinium pamoate, 72 hour incubation
Method: as §1

[4] = tested on: CCC-5 cholangiocarcinoma cells; assay type: cell-based; conditions: combination with pyrvinium pamoate, 72 hour incubation
Method: as §1

[5] = tested on: TFK-1 cholangiocarcinoma cells; assay type: cell-based; conditions: combination with pyrvinium pamoate, 72 hour incubation
Method: as §1

[6] = tested on: UM-Chor1 chordoma cell line; assay type: cell-based; conditions: combination with pyrvinium pamoate, 72 hour incubation
Method: as §1

[7] = tested on: HCT116 colorectal carcinoma cells; assay type: cell-based; conditions: combination with pyrvinium pamoate, 72 hour incubation
Method: as §1

[8] = tested on: Colo-205 colorectal carcinoma cells; assay type: cell-based; conditions: combination with pyrvinium pamoate, 72 hour incubation
Method: as §1

[9] = tested on: Flo-1 esophageal carcinoma cells; assay type: cell-based; conditions: combination with pyrvinium pamoate, 72 hour incubation
Method: as §1

[10] = tested on: OE-33 esophageal carcinoma cells; assay type: cell-based; conditions: combination with pyrvinium pamoate, 72 hour incubation
Method: as §1

[11] = tested on: TC-32 Ewing's sarcoma cells; assay type: cell-based; conditions: combination with pyrvinium pamoate, 72 hour incubation
Method: as §1

[12] = tested on: TC-71 Ewing's sarcoma cells; assay type: cell-based; conditions: combination with pyrvinium pamoate, 72 hour incubation
Method: as §1

[13] = tested on: Kato-III gastric carcinoma cells; assay type: cell-based; conditions: Kato-III; combination with pyrvinium pamoate; 72 hour incubation
Method: as §1

[14] = tested on: SNU-16 gastric carcinoma cells; assay type: cell-based; conditions: combination with pyrvinium pamoate, 72 hour incubation
Method: as §1

[15] = tested on: GIST-1 gastrointestinal stromal tumor cells; assay type: cell-based; conditions: 72 hour incubation; for CI range: combination with pyrvinium pamoate
Method: as §1

[16] = tested on: SK-LMS-1 leiomyosarcoma cells; assay type: cell-based; conditions: combination with pyrvinium pamoate, 72 hour incubation
Method: as §1

[17] = tested on: COV362 ovarian carcinoma cells; assay type: cell-based; conditions: combination with pyrvinium pamoate, 72 hour incubation
Method: as §1

[18] = tested on: TOV-112D ovarian carcinoma cells; assay type: cell-based; conditions: 72 hour incubation; for CI range: combination with pyrvinium pamoate
Method: as §1

[19] = tested on: Hs766t pancreatic carcinoma cells; assay type: cell-based; conditions: combination with pyrvinium pamoate, 72 hour incubation
Method: as §1

[20] = tested on: Rh30 rhabdomyosarcoma cells; assay type: cell-based; conditions: combination with pyrvinium pamoate, 72 hour incubation
Method: as §1

[21] = tested on: Rh41 rhabdomyosarcoma cells; assay type: cell-based; conditions: combination with pyrvinium pamoate, 72 hour incubation
Method: as §1

[22] = tested on: BxPC-3 pancreatic carcinoma cells; conditions: combination with pyrvinium pamoate, 72 hour incubation
Method: as §1

LO-68 mesothelioma cells = assay type: cell-based; conditions: combination with pyrvinium pamoate, 72 hour incubation
Method: as §1

JU-77 mesothelioma cells = assay type: cell-based; conditions: combination with pyrvinium pamoate, 72 hour incubation
Method: as §1

[23] = tested on: SK-N-AS neuroblastoma cells; assay type: cell-based
Method: as §1

[24] = tested on: CHP-212 neuroblastoma cells; assay type: cell-based; conditions: combination with pyrvinium pamoate, 72 hour incubation
Method: as §1

[25] = tested on: SK-UT-1 leiomyosarcoma cells; assay type: cell-based; conditions: 72 hour incubation
Method: as §1

[26] = tested on: SK-UT-1B leiomyosarcoma cells; assay type: cell-based; conditions: combination with pyrvinium pamoate, 72 hour incubation
Method: as §1

[27] = tested on: DMS-114 small cell lung carcinoma cells; assay type: cell-based; conditions: 72 hour incubation
Method: as §1

[28] = tested on: SW-1271 small cell lung carcinoma cells; assay type: cell-based; conditions: 72 hour incubation
Method: as §1

[29] = SK-N-AS, combination with pyrvinium pamoate, 72 hour incubation
[30] = combination with pyrvinium pamoate

Compound | CI range [1] | CI range [2] | CI range [3] | CI range [6] | CI range [11] | CI range [12] | CI range [16] | CI range [17] | CI range [20] | CI range [21] | CI range [23, 29] | CI range [24] | further results
O=c1[nH]cc(F)c(=O)[nH]1 [5-FU, 5-Fluorouracil] | 0.529-0.780 | 0.506-0.834 | 0.596-0.841 | 0.489-0.886 | 0.337-0.843 | 0.409-0.821 | 0.421-0.814 | 0.472-0.723 | 0.001-0.887 | 0.642-0.831 |  |  | CI range [4]: 0.319-0.892; CI range [5]: 0.303-0.814; CI range [7]: 0.806-0.886; CI range [8]: 0.094-0.867; CI range [9]: 0.378-0.859; CI range [10]: 0.481-0.715; Synergy with pyrvinium pamoate [13]: No; CI range [14]: 0.547-0.850; CI range [15]: 0.168-0.798; Synergy with pyrvinium pamoate [18]: No; CI range [19]: 0.328-0.504 and 0.230-0.589; CI range [22]: 0.539-0.785
N.N.O=C([O-])C1(C(=O)[O-])CCC1.[Pt+2] [Carboplatin] | 0.190-0.896 | 0.408-0.891 |  |  | 0.101-0.836 | 0.597-0.878 | 0.366-0.812 | 0.447-0.837 | 0.770-0.821 | 0.162-0.820 | 0.107-0.843 | 0.519-0.846 | CI range [9]: 0.253-0.892; CI range [10]: 0.647-0.863; CI range [13]: 0.221-0.887; CI range [14]: 0.267-0.860 and 0.261-0.842; Synergy with pyrvinium pamoate [15]: No; CI range (LO-68 mesothelioma cells): 0.410-0.801; CI range (JU-77 mesothelioma cells): 0.385-0.853; CI range [18]: 0.506-0.845
N.N.[Cl][Pt][Cl] [Cisplatin] | 0.314-0.798 | 0.309-0.886 | 0.506-0.861 | 0.468-0.887 | 0.588-0.878 | 0.329-0.832 | 0.014-0.783 | 0.443-0.859 | 0.693-0.877 | 0.130-0.874 | 0.130-0.882 | 0.694-0.756 | CI range [4]: 0.326-0.892; CI range [5]: 0.058-0.361; CI range [13]: 0.386-0.842; CI range [15]: 0.177-0.732; Synergy with pyrvinium pamoate [25]: No; CI range [26]: 0.407-0.742 and 0.337-0.809; CI range [18]: 0.439-0.845; CI range [19]: 0.458-0.875; CI range [27, 30]: 0.572-0.883; CI range [28, 30]: 0.568-0.895; CI range [22]: 0.459-0.775 and 0.472-0.882
O=P1(N(CCCl)CCCl)NCCCO1 (stereo not shown) [Cyclophosphamide] |  |  | 0.167-0.751 |  |  | 0.718-0.722 |  |  | 0.083-0.786 | 0.274-0.867 |  | 0.256-0.876 | CI range [23]: Yes- (0.098-0.858)
CC(=O)O[C@@]12CO[C@@H]1C[C@H](O)[C@@]1(C)C(=O)[C@H](O)C3=C(C)[C@@H](OC(=O)[C@H](O)[C@@H](NC(=O)OC(C)(C)C)c4ccccc4)C[C@@](O)([C@@H](OC(=O)c4ccccc4)[C@H]21)C3(C)C [Docetaxel] |  |  |  |  |  |  |  |  |  |  |  |  | Synergy with pyrvinium pamoate [18]: No
C#Cc1cccc(Nc2ncnc3cc(OCCOC)c(OCCOC)cc23)c1 [Erlotinib] |  |  |  | 0.308-0.883 |  |  |  |  |  |  |  |  | 
COc1cc([C@@H]2c3cc4c(cc3[C@@H](O[C@@H]3O[C@@H]5CO[C@@H](C)O[C@H]5[C@H](O)[C@H]3O)[C@H]3COC(=O)[C@H]23)OCO4)cc(OC)c1O [Etoposide] | 0.717-0.864 | 0.487-0.623 | 0.281-0.794 |  | 0.593-0.875 | 0.677-0.883 |  |  |  |  | 0.638-0.834 | 0.763-0.891 | CI range [7]: 0.716-0.836; CI range [8]: 0.107-0.751; Synergy with pyrvinium pamoate [27]: No; Synergy with pyrvinium pamoate [28]: No
